The text below walks through data of patent US20230338285A1, “PHARMACEUTICAL COMPOSITION COMPRISING HYDROXYCHLOROQUINE AND USES THEREOF” (priority 2020, published 2023).

Where two headings read alike, the source gives them in different places.

In general, Solubility refers to the concentration that dissolves in the medium under given conditions.

One data set deals with 2019-nCoV. Conditions: block of COVID-19 infection in vitro, Wang et al.; read-out: half-maximal effective concentration (EC50); cited from earlier work.
Data set [1] in a line: Solubility in propylene glycol and solvent mixtures by LC-HR-MS. In kind it is physicochemical. To be noted: for Accuracy (ratio of measured concentration to calculated concentration): propylene glycol, 40° C. On the procedure:
Chloroquine and hydroxychloroquine were synthesized according to published procedures at WuXi AppTec (Wuhan, China). […] The solubility of HCQ in propylene glycol (PG) was evaluated by preparing formulations at various concentrations and assessing their solubility by performing liquid chromatography-high resolution-mass spectrometry (LC-HR-MS). The solubility of HCQ in PG was measured at 40° C. and atmospheric pressure (~100 kPa) -Table 1a.
The solubility of HCQ in different solvent mixtures comprising propylene glycol (PG); glycerol and/or water was evaluated by preparing formulations and assessing the solubility of HCQ by performing liquid chromatography-high resolution-mass spectrometry (LC-HR-MS) as shown in Table 1b.

Data set [2] in a line: Aerosol particle size distribution (Aerodynamic Particle Sizer). In kind it is physicochemical. Conditions: thermal aerosol from 100 mg/mL in propylene glycol, heater 200-220° C. On the procedure: A liquid formulation containing a solution of hydroxychloroquine in propylene glycol at a concentration of 100 mg/mL was prepared and filled into a consumable cartridge.
The liquid formulation was nebulized using a device comprising a mesh heating element as described in WO2018153608 (A1). Aerosol from the liquid formulation was generated by thermal aerosolization. The temperature of the heater was maintained between 200-220° C. A programmable dual syringe pump (PDSP) with a simulated inhalation regimen of 55 mL delivered in 3 sec puff duration and 30 sec interval (including the subsequent discharge from the pump during piston down stroke) was used to transfer the aerosol. The PDSP pump was attached to a SUPER SESI (Fossilion Technologies, Madrid, SP) interfaced with Q Exactive HF system (Thermo Fisher Scientific, Waltham, MA, USA) as shown in FIG. 2.
The particle size distribution of the aerosols was measured using the TSI 3321 Aerodynamic Particle Sizer (APS, TSI Incorporated, Shoreview, MN, USA). To reach the operational flowrate of 5 L/min and to stay within the limits of detection concerning large particle number densities obtained in the experiment, the […] was connected with a 3302A Aerosol Diluter (TSI Incorporated), upstream of the APS using a 30 cm conductive tube with a 1-cm inner diameter (FIG. 3). […]

Data set [3] is described as follows: Thermal decomposition during thermal aerosolization (LC-HR-MS). Type of data set: physicochemical. To be noted: LC-HR-MS of aerosol trapped on Cambridge pad filter. Here is the method: Using the described aerosol generation and characterization setup, the aerosol produced from the device was pushed through the Cambridge filter pad connected to an impinger filled with 5 mL of ethanol to assess the transfer amount of hydroxychloroquine from the liquid to the aerosol. Compound extraction from the Cambridge filter pads was performed by adding 5 mL of ethanol from the impinger and another 5 mL of fresh ethanol to the filter pad. The two fractions were combined (total volume of 10 mL) for quantification. Chemical analyses for drug solubility and transfer rate assessment were performed by liquid chromatography equipped with a HILIC BEH amide column (50 × 3 mm, 1.7 µm, Waters, Manchester, UK) coupled to high resolution accurate mass spectrometry (Vanquish Duo - Q Exactive HF system, LC-HR-MS, ThermoFisher Scientific, Waltham, MA, USA). Mobile phases were composed of acetonitrile containing 0.1% formic acid and 10 mM ammonium formate. Samples were diluted to fit the calibration curve built from 9-calibrant levels (5-100 ng/mL). A volume of 5 µL diluted solution was injected. Mass spectrometry detection was realized in positive electrospray ionization with a mass resolution of 60,000 by scanning full scan mass from m/z 50-350.

Data set [4] deals with SARS-CoV-2 clinically isolated strain. To be noted: cited from earlier work; for EC50: Vero cells, Yao et al.

Consider `CCN(CC)CCCC(C)Nc1ccnc2cc(Cl)ccc12` (centres unmarked) [chloroquine], for which the EC50 in the data set with 2019-nCoV was 1.13 µM.

For hydroxychloroquine, the Solubility was found to be 151 mg/mL in data set [1] (Mix 1: propylene glycol 75%, glycerol 20%, water 5%); 141 mg/mL in data set [1] (Mix 2: propylene glycol 75%, glycerol 15%, water 10%); 42 mg/mL in data set [1] (Mix 3: propylene glycol 45%, glycerol 45%, water 10%); 150 mg/mL in data set [1] (Mix 4: propylene glycol 90%, glycerol 10%, water 0%); 324 mg/mL in data set [1] (Mix 5: propylene glycol 90%, glycerol 0%, water 10%); 261 mg/mL in data set [1] (Mix 6: propylene glycol 85%, glycerol 0%, water 15%). Also, the Solubility is 322 mg/mL in data set [1] (Mix 7: propylene glycol 95%, glycerol 0%, water 5%) and 139 mg/mL in data set [1] (Mix 8: propylene glycol 100, glycerol 0%, water 0%). Further, the “Accuracy (ratio of measured concentration to calculated concentration)” value in data set [1] (calculated concentration 1.3 mg/mL) was 78%; in data set [1] (calculated concentration 10.2 mg/mL) it was 103%; in data set [1] (calculated concentration 20.9 mg/mL), 104%; in data set [1] (calculated concentration 40.6 mg/mL) it was 92%; in data set [1] (calculated concentration 100.6 mg/mL) it was 96%. Moreover, the “median aerodynamic diameter of aerosol particles” value in data set [2] amounted to 1.3 µm. Besides, the “decomposition during thermal aerosolization” value in data set [3] was “no decomposition”. Also, the results for the EC50 in data set [4] (24 hours) and in data set [4] (48 hours) were 6.14 µM and 0.72 µM, respectively. Also, the “in vitro EC50” value in data set [4] (value from Yao et al.) is 0.242 µg/mL. Also, in data set [4] (value from Yao et al.), the “in vitro EC90” value was 1.68 µg/mL.
